Source: PMC4448990 (Pharmacology Research & Perspectives, 2015)

Assays:
Histamine, H3 = assay: in vitro selectivity profile; assay type: binding; conditions: eslicarbazepine 400 μmol/L
[1] = target: Kinase, protein, PKCz (h) (Homo sapiens, UniProt Q05513); assay: in vitro selectivity profile; assay type: biochemical
[2] = target: Protease, caspase, CASP-1 (h) (Homo sapiens, UniProt P29466); assay: in vitro selectivity profile; assay type: biochemical
Galanin, nonselective = assay: in vitro selectivity profile; assay type: binding; conditions: eslicarbazepine 400 μmol/L
Histamine, H1 = assay: in vitro selectivity profile; assay type: binding; conditions: eslicarbazepine 400 μmol/L
[3] = tested on: GABA A, BDZ, alpha 5 site; assay: in vitro selectivity profile; assay type: binding; conditions: eslicarbazepine 400 μmol/L
Muscarinic, M1 (h) = Muscarinic, M1 (h) (Homo sapiens, UniProt P11229); assay: in vitro selectivity profile; assay type: binding
[4] = tested on: Transferase, choline acetyl; assay: in vitro selectivity profile; assay type: biochemical; conditions: eslicarbazepine 400 μmol/L
[5] = tested on: Glutamate, NMDA agonist site; assay: in vitro selectivity profile; assay type: binding; conditions: eslicarbazepine 400 μmol/L
P-glycoprotein = conditions: ref Fortuna et al. [2012]; cited from earlier work
Serotonin, 5HT1D (h) = Serotonin, 5HT1D (h) (Homo sapiens, UniProt P28221); assay: in vitro selectivity profile; assay type: binding
[6] = target: Kinase, protein, GSK3b (h) (Homo sapiens, UniProt P49841); assay: in vitro selectivity profile; assay type: biochemical
[7] = plasma and brain concentrations of eslicarbazepine after ESL; assay type: in vivo; conditions: mouse; for concentration at 60 min: 100 mg/kg; for concentration at 15 min: Amygdala kindling
Serotonin, 5HT6 (h) = Serotonin, 5HT6 (h) (Homo sapiens, UniProt P50406); assay: in vitro selectivity profile; assay type: binding
Serotonin, 5HT5A (h) = Serotonin, 5HT5A (h) (Homo sapiens, UniProt P47898); assay: in vitro selectivity profile; assay type: binding
[8] = tested on: GABA A, BDZ, alpha 1 site; assay: in vitro selectivity profile; assay type: binding; conditions: eslicarbazepine 400 μmol/L
[9] = target: human GRIN1/GRIN2B NMDA receptor (Homo sapiens, UniProt Q05586+Q13224); assay: submaximal NMDA-receptor-mediated currents in HEK cells; assay type: cell-based
Sigma 2 = assay: in vitro selectivity profile; assay type: binding; conditions: eslicarbazepine 400 μmol/L
[10] = tested on: GABA A, BDZ, alpha 6 site; assay: in vitro selectivity profile; assay type: binding; conditions: eslicarbazepine 400 μmol/L
transient Na+ channels = conditions: ref Döser et al. [2013c], [2015]; cited from earlier work
Neurokinin, NK3 (NKB) = assay: in vitro selectivity profile; assay type: binding; conditions: eslicarbazepine 400 μmol/L
[11] = target: Kinase, protein, SGK1 (h) (Homo sapiens, UniProt O00141); assay: in vitro selectivity profile; assay type: biochemical
GABA-B = assay: in vitro selectivity profile; assay type: binding; conditions: eslicarbazepine 400 μmol/L
[12] = tested on: Nicotinic, neuronal [a-BnTx insensitive] (h); assay: in vitro selectivity profile; assay type: binding, human; conditions: eslicarbazepine 400 μmol/L
Angiotensin II, AT2 = assay: in vitro selectivity profile; assay type: binding; conditions: eslicarbazepine 400 μmol/L
[13] = tested on: Somatostatin, nonselective; assay: in vitro selectivity profile; assay type: binding; conditions: eslicarbazepine 400 μmol/L
[14] = human plasma and CSF pharmacokinetics; assay type: in vivo; conditions: ESL 1200 mg once daily, protein binding 30%
[15] = tested on: sodium channels endogenously expressed in N1E-115 mouse neuroblastoma cells; conditions: 250 μmol/L; ref Hebeisen et al. [2014]; cited from earlier work
Muscarinic, M5 (h) = Muscarinic, M5 (h) (Homo sapiens, UniProt P08912); assay: in vitro selectivity profile; assay type: binding
[16] = eslicarbazepine; ref Bialer and Soares-da-Silva [2012]; cited from earlier work
Calcium channel, type N = assay: in vitro selectivity profile; assay type: binding; conditions: eslicarbazepine 400 μmol/L
Adenosine, A1 (h) = Adenosine, A1 (h) (Homo sapiens, UniProt P30542); assay: in vitro selectivity profile; assay type: binding
[17] = tested on: Decarboxylase, glutamic acid; assay: in vitro selectivity profile; assay type: biochemical; conditions: eslicarbazepine 400 μmol/L
Glutamate, mGluR1 = assay: in vitro selectivity profile; assay type: binding; conditions: eslicarbazepine 400 μmol/L
Serotonin, 5HT1B = assay: in vitro selectivity profile; assay type: binding; conditions: eslicarbazepine 400 μmol/L
Neuropeptide, NPY2 (h) = Neuropeptide, NPY2 (h) (Homo sapiens, UniProt P49146); assay: in vitro selectivity profile; assay type: binding
[18] = tested on: Nitric oxide, NOS (neuronal-binding); assay: in vitro selectivity profile; conditions: eslicarbazepine 400 μmol/L
Adenosine, A2 = assay: in vitro selectivity profile; assay type: binding; conditions: eslicarbazepine 400 μmol/L
Sodium, site 2 = assay: in vitro selectivity profile; assay type: binding; conditions: eslicarbazepine 400 μmol/L

Sequence of Muscarinic, M5 (h) (P08912 whole entry): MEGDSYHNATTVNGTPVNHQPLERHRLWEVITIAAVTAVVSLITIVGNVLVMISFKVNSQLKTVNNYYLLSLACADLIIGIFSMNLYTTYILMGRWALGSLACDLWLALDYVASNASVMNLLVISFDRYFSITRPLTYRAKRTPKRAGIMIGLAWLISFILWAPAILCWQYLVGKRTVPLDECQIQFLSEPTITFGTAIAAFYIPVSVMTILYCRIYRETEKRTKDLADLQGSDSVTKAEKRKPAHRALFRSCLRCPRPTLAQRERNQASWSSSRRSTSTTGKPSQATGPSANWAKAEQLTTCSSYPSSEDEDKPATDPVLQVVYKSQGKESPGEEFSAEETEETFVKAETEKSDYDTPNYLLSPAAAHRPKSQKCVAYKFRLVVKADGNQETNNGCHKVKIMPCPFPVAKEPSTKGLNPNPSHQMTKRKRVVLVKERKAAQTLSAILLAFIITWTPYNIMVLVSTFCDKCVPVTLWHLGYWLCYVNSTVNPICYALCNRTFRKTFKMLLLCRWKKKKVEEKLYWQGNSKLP
Sequence of Neuropeptide, NPY2 (h) (P49146 whole entry): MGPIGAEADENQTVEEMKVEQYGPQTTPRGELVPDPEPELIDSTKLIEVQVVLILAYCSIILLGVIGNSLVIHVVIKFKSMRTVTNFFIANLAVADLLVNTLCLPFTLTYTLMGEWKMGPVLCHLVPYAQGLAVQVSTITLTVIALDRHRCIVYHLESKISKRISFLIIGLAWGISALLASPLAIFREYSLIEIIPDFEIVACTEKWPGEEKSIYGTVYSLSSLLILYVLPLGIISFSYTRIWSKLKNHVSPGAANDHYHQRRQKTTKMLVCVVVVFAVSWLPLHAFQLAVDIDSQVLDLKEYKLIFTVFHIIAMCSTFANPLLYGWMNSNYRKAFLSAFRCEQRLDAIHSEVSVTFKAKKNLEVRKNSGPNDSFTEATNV
Sequence of Serotonin, 5HT5A (h) (P47898 whole entry): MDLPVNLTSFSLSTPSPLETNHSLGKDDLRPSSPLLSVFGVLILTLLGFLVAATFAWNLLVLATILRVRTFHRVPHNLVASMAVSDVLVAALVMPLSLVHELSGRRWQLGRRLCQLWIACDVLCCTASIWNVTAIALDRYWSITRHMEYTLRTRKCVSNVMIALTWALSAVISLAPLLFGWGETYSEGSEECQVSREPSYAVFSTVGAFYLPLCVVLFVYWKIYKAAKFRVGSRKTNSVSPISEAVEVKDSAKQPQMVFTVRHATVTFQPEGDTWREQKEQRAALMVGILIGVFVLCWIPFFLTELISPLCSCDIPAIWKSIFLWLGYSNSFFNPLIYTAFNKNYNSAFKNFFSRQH
Sequence of Kinase, protein, SGK1 (h) (O00141 whole entry): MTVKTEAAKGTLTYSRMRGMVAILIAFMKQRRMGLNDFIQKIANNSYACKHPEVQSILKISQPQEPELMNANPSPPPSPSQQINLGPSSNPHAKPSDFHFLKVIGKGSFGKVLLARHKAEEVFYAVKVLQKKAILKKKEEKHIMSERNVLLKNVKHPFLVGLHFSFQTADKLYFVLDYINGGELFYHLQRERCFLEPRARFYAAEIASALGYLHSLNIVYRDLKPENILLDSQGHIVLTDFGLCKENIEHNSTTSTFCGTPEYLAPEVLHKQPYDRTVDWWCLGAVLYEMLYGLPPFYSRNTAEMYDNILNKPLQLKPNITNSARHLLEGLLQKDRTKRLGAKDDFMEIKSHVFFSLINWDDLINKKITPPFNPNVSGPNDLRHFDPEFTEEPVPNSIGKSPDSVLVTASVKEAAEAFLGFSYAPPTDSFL
Sequence of Serotonin, 5HT6 (h) (P50406 whole entry): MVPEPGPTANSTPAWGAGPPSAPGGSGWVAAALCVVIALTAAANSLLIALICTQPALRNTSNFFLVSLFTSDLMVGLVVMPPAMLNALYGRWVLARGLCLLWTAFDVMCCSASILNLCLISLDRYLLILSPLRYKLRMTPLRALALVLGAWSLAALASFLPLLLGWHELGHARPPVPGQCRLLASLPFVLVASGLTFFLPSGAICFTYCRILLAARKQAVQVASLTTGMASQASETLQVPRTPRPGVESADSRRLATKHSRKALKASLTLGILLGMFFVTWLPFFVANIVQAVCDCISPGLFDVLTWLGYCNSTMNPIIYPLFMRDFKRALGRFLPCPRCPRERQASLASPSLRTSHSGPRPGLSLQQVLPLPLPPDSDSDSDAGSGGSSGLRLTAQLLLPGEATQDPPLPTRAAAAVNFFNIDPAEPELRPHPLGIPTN
Sequence of Adenosine, A1 (h) (P30542 whole entry): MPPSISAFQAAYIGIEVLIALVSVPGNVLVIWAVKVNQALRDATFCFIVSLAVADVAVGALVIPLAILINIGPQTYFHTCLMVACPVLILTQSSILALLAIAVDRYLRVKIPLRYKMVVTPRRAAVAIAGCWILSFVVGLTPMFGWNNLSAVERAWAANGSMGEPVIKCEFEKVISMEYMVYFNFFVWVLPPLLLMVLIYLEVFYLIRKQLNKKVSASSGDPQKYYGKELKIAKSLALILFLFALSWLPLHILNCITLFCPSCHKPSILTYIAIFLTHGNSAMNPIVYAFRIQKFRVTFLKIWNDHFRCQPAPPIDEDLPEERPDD
Sequence of Protease, caspase, CASP-1 (h) (P29466 120-297 limits assumed): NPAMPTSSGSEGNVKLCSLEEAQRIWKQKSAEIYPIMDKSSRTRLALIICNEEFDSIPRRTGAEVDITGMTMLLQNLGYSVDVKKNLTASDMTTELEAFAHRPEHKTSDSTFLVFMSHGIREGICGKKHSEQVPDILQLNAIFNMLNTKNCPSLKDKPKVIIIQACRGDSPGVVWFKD
Sequence of Protease, caspase, CASP-1 (h) (P29466 317-404 limits assumed): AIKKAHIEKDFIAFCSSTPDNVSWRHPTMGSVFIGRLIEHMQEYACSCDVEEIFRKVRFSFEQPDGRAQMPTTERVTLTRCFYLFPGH
Sequence of Kinase, protein, PKCz (h) (Q05513 whole entry): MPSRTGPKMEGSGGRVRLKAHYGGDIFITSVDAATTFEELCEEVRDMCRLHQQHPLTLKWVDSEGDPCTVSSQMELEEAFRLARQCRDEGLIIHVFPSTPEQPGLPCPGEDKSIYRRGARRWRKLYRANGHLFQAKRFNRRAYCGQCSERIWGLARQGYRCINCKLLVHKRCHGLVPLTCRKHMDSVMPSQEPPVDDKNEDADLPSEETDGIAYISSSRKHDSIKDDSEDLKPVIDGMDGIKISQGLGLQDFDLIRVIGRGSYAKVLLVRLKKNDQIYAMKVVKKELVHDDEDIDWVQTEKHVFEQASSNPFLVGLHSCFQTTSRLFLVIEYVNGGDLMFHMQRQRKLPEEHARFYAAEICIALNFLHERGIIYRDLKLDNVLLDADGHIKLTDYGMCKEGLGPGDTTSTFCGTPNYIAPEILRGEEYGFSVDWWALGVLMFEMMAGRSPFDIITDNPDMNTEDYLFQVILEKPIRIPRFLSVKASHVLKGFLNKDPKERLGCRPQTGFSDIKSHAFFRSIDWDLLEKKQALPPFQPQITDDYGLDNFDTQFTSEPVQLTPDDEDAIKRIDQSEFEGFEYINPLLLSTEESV
Sequence of Muscarinic, M1 (h) (P11229 whole entry): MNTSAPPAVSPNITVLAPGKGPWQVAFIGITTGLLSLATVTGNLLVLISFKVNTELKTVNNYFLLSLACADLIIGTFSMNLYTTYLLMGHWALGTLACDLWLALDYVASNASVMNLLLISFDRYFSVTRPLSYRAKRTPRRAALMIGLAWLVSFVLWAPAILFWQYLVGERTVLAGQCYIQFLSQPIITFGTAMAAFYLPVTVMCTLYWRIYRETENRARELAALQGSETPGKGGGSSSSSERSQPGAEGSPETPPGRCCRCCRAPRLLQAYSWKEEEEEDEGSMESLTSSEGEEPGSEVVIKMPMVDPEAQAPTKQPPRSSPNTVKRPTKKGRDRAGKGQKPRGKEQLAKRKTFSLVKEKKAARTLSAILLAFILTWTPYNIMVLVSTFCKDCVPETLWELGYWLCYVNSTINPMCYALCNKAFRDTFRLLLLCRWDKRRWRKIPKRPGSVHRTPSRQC
Sequence of Serotonin, 5HT1D (h) (P28221 whole entry): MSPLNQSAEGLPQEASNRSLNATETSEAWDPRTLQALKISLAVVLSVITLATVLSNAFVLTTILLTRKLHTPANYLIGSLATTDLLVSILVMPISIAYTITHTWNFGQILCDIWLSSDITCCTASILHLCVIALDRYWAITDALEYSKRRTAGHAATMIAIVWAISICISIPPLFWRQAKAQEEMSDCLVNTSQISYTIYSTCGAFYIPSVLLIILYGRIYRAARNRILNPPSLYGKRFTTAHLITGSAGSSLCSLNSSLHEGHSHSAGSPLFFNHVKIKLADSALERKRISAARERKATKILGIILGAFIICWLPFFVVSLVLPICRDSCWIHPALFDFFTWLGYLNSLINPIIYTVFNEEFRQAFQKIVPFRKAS
Sequence of Kinase, protein, GSK3b (h) (P49841 whole entry): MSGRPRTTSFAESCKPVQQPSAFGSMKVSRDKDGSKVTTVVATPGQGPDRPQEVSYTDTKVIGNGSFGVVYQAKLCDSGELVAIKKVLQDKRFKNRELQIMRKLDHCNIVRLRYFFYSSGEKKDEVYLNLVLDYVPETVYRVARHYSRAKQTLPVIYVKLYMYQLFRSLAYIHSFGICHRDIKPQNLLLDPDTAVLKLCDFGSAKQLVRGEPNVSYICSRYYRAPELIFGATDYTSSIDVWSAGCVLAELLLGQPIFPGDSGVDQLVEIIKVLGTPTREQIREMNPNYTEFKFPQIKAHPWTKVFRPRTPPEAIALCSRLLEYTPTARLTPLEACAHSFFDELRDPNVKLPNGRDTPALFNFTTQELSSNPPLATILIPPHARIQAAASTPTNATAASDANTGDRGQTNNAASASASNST

## NC(=O)N1c2ccccc2C[C@H](O)c2ccccc21 [eslicarbazepine]
Histamine, H3
  % inhibition: 0.0%
[1]
  inhibition at 400 µM: 1.48%
[2]
  inhibition at 400 µM: 0%
Galanin, nonselective
  % inhibition: 6.11%
Histamine, H1
  % inhibition: 23.23%
[3]
  % inhibition: 23.75%
Muscarinic, M1 (h)
  inhibition at 400 µM: 0%
[4]
  % inhibition: 0.0%
[5]
  % inhibition: 0.0%
P-glycoprotein
  intestinal transport M–S versus S–M and sensitivity to verapamil: of the same magnitude and insensitive to the P-glycoprotein inhibitor verapamil
Serotonin, 5HT1D (h)
  inhibition at 400 µM: 16.4%
[6]
  inhibition at 400 µM: 4.32%
[7]; NMRI, Swiss, brain and plasma, other: oral or intraperitoneal
  Kp at 60 min: 3.4 to 5.8
[7]; NMRI, brain (lipid fraction), intraperitoneal, Brain (lipid fraction) Eslicarbazepine, Corneal kindling, ESL 100 mg/kg i.p.
  concentration at 60 min: 564 µM
[7]; NMRI, brain (lipid fraction), intraperitoneal, 200 mg/kg, Brain (lipid fraction) Eslicarbazepine, ESL 200 mg/kg i.p.
  concentration at 15 min: 313 µM
[7]; NMRI, brain (lipid fraction), intraperitoneal, 300 mg/kg, Brain (lipid fraction) Eslicarbazepine, ESL 300 mg/kg i.p.
  concentration at 15 min: 489 µM
[7]; NMRI, brain (organic phase), intraperitoneal, Brain (organic phase) Eslicarbazepine, Corneal kindling, ESL 100 mg/kg i.p.
  concentration at 60 min: 314 µM
[7]; NMRI, brain (organic phase), intraperitoneal, 200 mg/kg, Brain (organic phase) Eslicarbazepine, ESL 200 mg/kg i.p.
  concentration at 15 min: 174 µM
[7]; NMRI, brain (organic phase), intraperitoneal, 300 mg/kg, Brain (organic phase) Eslicarbazepine, ESL 300 mg/kg i.p.
  concentration at 15 min: 273 µM
[7]; Swiss, brain (lipid fraction), oral, Brain (lipid fraction) Eslicarbazepine, Latrunculin A-induced seizures, ESL 100 mg/kg p.o.
  concentration at 60 min: 303 µM
[7]; Swiss, brain (organic phase), oral, Brain (organic phase) Eslicarbazepine, Latrunculin A-induced seizures, ESL 100 mg/kg p.o.
  concentration at 60 min: 169 µM
Serotonin, 5HT6 (h)
  inhibition at 400 µM: 5.86%
Serotonin, 5HT5A (h)
  inhibition at 400 µM: 11.9%
[8]
  % inhibition: 25.92%
[9]
  IC50: 1230 µM
Sigma 2
  % inhibition: 6.11%
[10]
  % inhibition: 0.0%
Transient Na+ channels
  neuronal firing in dissociated granule cells from human hippocampus: significantly inhibited neuronal firing
Neurokinin, NK3 (NKB)
  % inhibition: 0.0%
[11]
  inhibition at 400 µM: 5.7%
GABA-B
  % inhibition: 11.72%
[12]
  % inhibition: 23.46%
Angiotensin II, AT2
  % inhibition: 11.32%
[13]
  % inhibition: 0.0%
[14]
  eslicarbazepine-free drug, peak plasma: 63 µmol/L
[15]
  recovery of fast inactivated channels: recovered similar to control conditions
Muscarinic, M5 (h)
  inhibition at 400 µM: 16%
[16]
  binding to nonspecific proteins (protein binding): ~30%
Calcium channel, type N
  % inhibition: 23.34%
Adenosine, A1 (h)
  inhibition at 400 µM: 32.3%
[17]
  % inhibition: 0.0%
Glutamate, mGluR1
  % inhibition: 1.82%
Serotonin, 5HT1B
  % inhibition: 2.1%
Neuropeptide, NPY2 (h)
  inhibition at 400 µM: 8.43%
[18]
  % inhibition: 0.0%
Adenosine, A2
  % inhibition: 0.0%
Sodium, site 2
  % inhibition: 34.46%
